Laboratory results from patent publication US8222279B2, “Small molecule insulin mimetics absent quinones” (Duke University, priority 2006, dated 2012).

Legend:
human insulin receptor = molecular target: T1, human insulin receptor (Homo sapiens, UniProt P06213); assay: Insulin receptor autophosphorylation (phosphotyrosines 1162/1163) immunoblot in CHO-IR cells; type: cell-based; details: increasing concentrations, 10 min at 37° C., immunoblot not shown
T1 construct: expressed in transfected cells; host or cells: CHO-IR (Chinese hamster ovary cells)
Excerpt: These compounds were examined in a cell-based assay for their ability to mimic the action of insulin. In this case, Chinese hamster ovary (CHO) cells stably transfected with a gene for human insulin receptor and expressing it on their surface were used. CHO-IR cells were stimulated with increasing concentrations of insulin, LDIV122 (same as 198), LDIV148 (same as 196), ZL-196 (an insulin mimic that includes a quinone), and LDIV99 (same as 194). Whole-cell lysates were immunoblotted with antibodies to phosphotyrosines 1162 and 1163 that lie on the activation loop in the beta-subunit of the insulin receptor.
Materials. Antibodies to tyrosine phosphorylated IR(Tyr1162/Tyr1163) are from BioSource (Camarillo, Calif.).
CHO-IR cells (Chinese hamster ovary cells overexpressing the β isoform insulin receptor) were cultured in Ham's F12 supplemented with 10% FCS, 2 mM glutamax and gentamicin at 37° C. in a 5% CO2 atmosphere. Cells were serum starved for 72 h in 12-well plates, then stimulated with increasing concentrations of insulin or compounds in KRP-Hepes for 10 min at 37° C. The cells are washed with ice-cold phosphate-buffered saline and solubilized in 2×SDS-sample buffer (50 mM Tris-HCl, pH 7.4, 5% glycerol, 2% SDS, 0.005% bromophenol blue) containing 2 mM sodium orthovanadate and 200 mM sodium fluoride. […]

[1] = tested on: differentiated PC12 neurons; assay: Protection of differentiated PC12 neurons from apoptotic cell death induced by NGF withdrawal; type: cell-based; details: 100 ng/ml NGF; 48 h; control cells 64±1%
Experimental: A library of asterriquinones was screened using a 96-well ELISA assay that detects phosphorylated TrkA, the NGF receptor. We identified many compounds from this library that activated TrkA in CHO cells. The library was also screened for dose-dependent cytotoxicity in these cells. From these assays, we selected two compounds 1H5 and 5E5 for further study based on NGF agonist activity and low toxicity. […] 1H5 at 30 μM has 49±4% the effect of 100 ng/ml NGF. […] Despite this, 1H5 can protect differentiated PC12 neurons from apoptotic cell death induced by NGF withdrawal for 48 h. Cell death is 64±1% in control PC12 cells, 52±3% in cell treated with 30 μM 1H5, and 18±6% in cells treated with 100 ng/ml NGF. […] 5E5 at 30 μM has 212±11% the effect of 100 ng/ml NGF on CHO-Trk cells. It is non-toxic at concentrations up to 10 μM. […] 5E5 also causes phosphorylation of FRS2/SNT, a differentiation-specific target of NGF in neurons and PC12 cells (2.7-fold v.s. NGF).

T1 sequence (P06213 763-1382 limits assumed): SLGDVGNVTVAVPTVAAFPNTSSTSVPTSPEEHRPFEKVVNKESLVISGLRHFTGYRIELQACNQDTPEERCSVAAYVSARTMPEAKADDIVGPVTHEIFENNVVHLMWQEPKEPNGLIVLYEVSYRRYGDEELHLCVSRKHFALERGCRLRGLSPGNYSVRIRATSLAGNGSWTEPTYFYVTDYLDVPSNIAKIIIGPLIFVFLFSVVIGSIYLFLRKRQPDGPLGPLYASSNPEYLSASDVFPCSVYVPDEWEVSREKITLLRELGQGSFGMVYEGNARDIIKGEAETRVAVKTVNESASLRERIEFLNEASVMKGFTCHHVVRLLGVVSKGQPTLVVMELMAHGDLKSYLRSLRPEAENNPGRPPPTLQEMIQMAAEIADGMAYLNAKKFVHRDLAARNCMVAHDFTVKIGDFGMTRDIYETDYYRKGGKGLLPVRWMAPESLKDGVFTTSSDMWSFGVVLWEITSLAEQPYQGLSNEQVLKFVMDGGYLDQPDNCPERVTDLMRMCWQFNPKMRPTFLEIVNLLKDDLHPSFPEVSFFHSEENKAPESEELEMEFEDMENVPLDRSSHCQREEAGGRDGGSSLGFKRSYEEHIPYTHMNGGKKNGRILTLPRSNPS
T1 sequence (P06213 28-758 partner limits assumed): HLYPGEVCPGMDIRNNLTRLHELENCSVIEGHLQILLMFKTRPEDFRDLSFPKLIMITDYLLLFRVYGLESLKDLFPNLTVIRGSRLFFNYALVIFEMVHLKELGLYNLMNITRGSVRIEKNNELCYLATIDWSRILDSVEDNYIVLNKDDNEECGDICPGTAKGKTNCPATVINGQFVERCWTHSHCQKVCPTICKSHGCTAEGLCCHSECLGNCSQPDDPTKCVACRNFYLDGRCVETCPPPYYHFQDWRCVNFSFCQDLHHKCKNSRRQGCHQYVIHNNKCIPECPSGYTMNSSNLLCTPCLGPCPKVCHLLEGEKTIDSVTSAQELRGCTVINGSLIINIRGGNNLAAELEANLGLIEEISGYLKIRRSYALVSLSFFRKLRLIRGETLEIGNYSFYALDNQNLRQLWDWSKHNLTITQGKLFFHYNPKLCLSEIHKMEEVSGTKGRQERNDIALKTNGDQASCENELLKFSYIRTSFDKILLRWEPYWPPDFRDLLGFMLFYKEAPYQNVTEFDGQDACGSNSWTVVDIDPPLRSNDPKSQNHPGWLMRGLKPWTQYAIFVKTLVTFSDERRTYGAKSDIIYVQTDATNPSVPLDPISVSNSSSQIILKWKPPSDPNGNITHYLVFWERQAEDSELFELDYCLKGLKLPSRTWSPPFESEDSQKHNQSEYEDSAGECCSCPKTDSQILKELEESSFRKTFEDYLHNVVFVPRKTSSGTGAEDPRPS

Autophosphorylation of the insulin receptor (human insulin receptor)	Molecule	Cell death [1] [%]
dose-dependent autophosphorylation	CC(C)=CCc1cccc2c(-c3oc(CO)cc(=O)c3O)c[nH]c12 [LDIV99, 3-Hydroxy-6-hydroxymethyl-2-[7-(3-methyl-but-2-enyl)-1H-indol-3-yl]-pyran-4-one]	
dose-dependent autophosphorylation	CC(C)=CCc1cccc2c(-c3c(O)c(=O)cc(CO)n3C)c[nH]c12 [LDIV148, 3-Hydroxy-6-hydroxymethyl-1-methyl-2-[7-(3-methyl-but-2-enyl)-1H-indol-3-yl]-pyridin-4-one]	
	NGF: nerve growth factor, ligand of TrkA, used as reference at 100 ng/ml	18±6
